Data from patent US20130274338A1, “PHARMACEUTICAL COMPOSITIONS COMPRISING DGLA, 15-OHEPA, AND/OR 15-HETRE AND METHODS OF REDUCING SEBUM PRODUCTION USING SAME” (priority 2012, published 2013).

Test system: P. acnes
Assay: Agar dilution method, growth of P. acnes and MIC, combinations with a fatty acid spike
Format: cell-based, Propionibacterium acnes
Parameters: key to Growth Index Plate 1 / Growth Index Plate 2 / Growth Index Plate 3 / Growth Index Avg: +++: confluent growth (comparable to control); ++: less confluent growth; +: marked reduction in growth to multiple tiny, single colonies; −: no growth present
Method: Several compounds including fatty acids such as DGLA, 15-OHEPA, and 15-HETrE were tested to determine their capacity to inhibit the growth of P. acnes. In an exemplary method, an agar dilution method was used to determine the minimum inhibitory concentration (MIC) of each tested compound. Briefly, the agar dilution method involved preparing a series of concentrations of each compound (e.g., nicotinamide, benzoyl peroxide, adapalene, metronidazole, DGLA, 15-OHEPA, and 15-HETrE) in a Reinforced Clostridial Agar (RCA) media that facilitates growth of P. acnes under anaerobic conditions. An inoculum of P. acnes was prepared by incubation of P. acnes for approximately seven days at 35-37° C. to achieve a ≧1.0 OD600 inoculum of P. acnes in RCM broth. A portion of this inoculum was then added to the surface of each plate as a 10 μL spot and incubated at 35-37° C. for 72 hours or more. Growth of P. acnes was then observed and compared to control plates in which no compound has been added, and positive inhibition plates prepared with erythromycin. […] The growth of P. acnes in the presence of nicotinamide, benzoyl peroxide, adapalene, metronidazole, DGLA, 15-OHEPA, and 15-HETrE was determined with varying concentrations of the compound (see, Table 2). Next, the MIC was determined as the concentration at which a marked reduction (+) occurs in the appearance of growth on the test plate (as per Clinical and Laboratory Standards Institute M11-A7).
The compounds tested singly in Example 1 were tested in combination with one another to determine the capacity of the combination to inhibit the growth of P. acnes. In an exemplary method, the MIC was determined for each of the combination as described in Example 1. Briefly, test combinations included DGLA with nicotinamide, benzoyl peroxide, adapalene, or metronidazole; 15-HETrE with nicotinamide, benzoyl peroxide, adapalene, or metronidazole; and 15-OHEPA with nicotinamide, benzoyl peroxide, adapalene, or metronidazole. The tables below show the growth of P. acnes in the presence of 0.4 or 1.0 mg/mL DGLA with varying concentrations of nicotinamide, benzoyl peroxide, adapalene, or metronidazole (Table 3); the growth of P. acnes in the presence of 0.01 or 0.05 mg/mL 15-HETrE with varying concentrations of nicotinamide, benzoyl peroxide, adapalene, or metronidazole (Table 5); and the growth of P. acnes in the presence of 0.5 or 0.1 mg/mL 15-OHEPA with varying concentrations of nicotinamide, benzoyl peroxide, adapalene, or metronidazole (Table 7).

[1] = compound at 0.2 mg/mL + 0.01 mg/mL 15-HETrE
[2] = compound at 0.2 mg/mL + 0.05 mg/mL 15-HETrE
[3] = compound at 0.2 mg/mL + 0.05 mg/mL 15-OHEPA
[4] = compound at 0.2 mg/mL + 0.1 mg/mL 15-OHEPA
[5] = compound at 0.2 mg/mL + 0.4 mg/mL dGLA
[6] = compound at 0.2 mg/mL + 1.0 mg/mL dGLA
[7] = compound at 0.4 mg/mL + 0.01 mg/mL 15-HETrE
[8] = compound at 0.4 mg/mL + 0.05 mg/mL 15-HETrE
[9] = compound at 0.4 mg/mL + 0.05 mg/mL 15-OHEPA
[10] = compound at 0.4 mg/mL + 0.1 mg/mL 15-OHEPA
[11] = compound at 0.4 mg/mL + 0.4 mg/mL dGLA
[12] = compound at 0.4 mg/mL + 1.0 mg/mL dGLA
[13] = compound at 0.6 mg/mL + 0.01 mg/mL 15-HETrE
[14] = compound at 0.6 mg/mL + 0.05 mg/mL 15-HETrE
[15] = compound at 0.6 mg/mL + 0.05 mg/mL 15-OHEPA
[16] = compound at 0.6 mg/mL + 0.1 mg/mL 15-OHEPA
[17] = compound at 0.6 mg/mL + 0.4 mg/mL dGLA
[18] = compound at 0.6 mg/mL + 1.0 mg/mL dGLA
[19] = compound at 0.8 mg/mL + 0.01 mg/mL 15-HETrE
[20] = compound at 0.8 mg/mL + 0.05 mg/mL 15-HETrE
[21] = compound at 0.8 mg/mL + 0.05 mg/mL 15-OHEPA
[22] = compound at 0.8 mg/mL + 0.1 mg/mL 15-OHEPA
[23] = compound at 0.8 mg/mL + 0.4 mg/mL dGLA
[24] = compound at 0.8 mg/mL + 1.0 mg/mL dGLA
[25] = compound at 1.0 mg/mL + 0.01 mg/mL 15-HETrE
[26] = compound at 1.0 mg/mL + 0.05 mg/mL 15-HETrE
[27] = compound at 1.0 mg/mL + 0.05 mg/mL 15-OHEPA
[28] = compound at 1.0 mg/mL + 0.1 mg/mL 15-OHEPA
[29] = compound at 1.0 mg/mL + 0.4 mg/mL dGLA
[30] = compound at 1.0 mg/mL + 1.0 mg/mL dGLA

Cc1ncc([N+](=O)[O-])n1CCO [Metronidazole]
Growth Index Avg [1]: +++
Growth Index Plate 1 [1]: +++
Growth Index Plate 2 [1]: +++
Growth Index Plate 3 [1]: +++
Growth Index Avg [2]: −
Growth Index Plate 1 [2]: −
Growth Index Plate 2 [2]: −
Growth Index Plate 3 [2]: −
Growth Index Avg [3]: +++
Growth Index Plate 1 [3]: +++
Growth Index Plate 2 [3]: +++
Growth Index Plate 3 [3]: +++
Growth Index Avg [4]: −
Growth Index Plate 1 [4]: −
Growth Index Plate 2 [4]: −
Growth Index Plate 3 [4]: −
Growth Index Avg [5]: +++
Growth Index Plate 1 [5]: +++
Growth Index Plate 2 [5]: +++
Growth Index Plate 3 [5]: +++
Growth Index Avg [6]: +++
Growth Index Plate 1 [6]: +++
Growth Index Plate 2 [6]: +++
Growth Index Plate 3 [6]: +++
Growth Index Avg [7]: +++
Growth Index Plate 1 [7]: +++
Growth Index Plate 2 [7]: +++
Growth Index Plate 3 [7]: +++
Growth Index Avg [8]: −
Growth Index Plate 1 [8]: −
Growth Index Plate 2 [8]: −
Growth Index Plate 3 [8]: −
Growth Index Avg [9]: +++
Growth Index Plate 1 [9]: +++
Growth Index Plate 2 [9]: +++
Growth Index Plate 3 [9]: +++
Growth Index Avg [10]: −
Growth Index Plate 1 [10]: −
Growth Index Plate 2 [10]: −
Growth Index Plate 3 [10]: −
Growth Index Avg [11]: +++
Growth Index Plate 1 [11]: +++
Growth Index Plate 2 [11]: +++
Growth Index Plate 3 [11]: +++
Growth Index Avg [12]: +++
Growth Index Plate 1 [12]: +++
Growth Index Plate 2 [12]: +++
Growth Index Plate 3 [12]: +++
Growth Index Avg [13]: +++
Growth Index Plate 1 [13]: +++
Growth Index Plate 2 [13]: +++
Growth Index Plate 3 [13]: +++
Growth Index Avg [14]: −
Growth Index Plate 1 [14]: −
Growth Index Plate 2 [14]: −
Growth Index Plate 3 [14]: −
Growth Index Avg [15]: +++
Growth Index Plate 1 [15]: +++
Growth Index Plate 2 [15]: +++
Growth Index Plate 3 [15]: +++
Growth Index Avg [16]: −
Growth Index Plate 1 [16]: −
Growth Index Plate 2 [16]: −
Growth Index Plate 3 [16]: −
Growth Index Avg [17]: +++
Growth Index Plate 1 [17]: +++
Growth Index Plate 2 [17]: +++
Growth Index Plate 3 [17]: +++
Growth Index Avg [18]: +++
Growth Index Plate 1 [18]: +++
Growth Index Plate 2 [18]: +++
Growth Index Plate 3 [18]: +++
Growth Index Avg [19]: +++
Growth Index Plate 1 [19]: +++
Growth Index Plate 2 [19]: +++
Growth Index Plate 3 [19]: +++
Growth Index Avg [20]: −
Growth Index Plate 1 [20]: −
Growth Index Plate 2 [20]: −
Growth Index Plate 3 [20]: −
Growth Index Avg [21]: +++
Growth Index Plate 1 [21]: +++
Growth Index Plate 2 [21]: +++
Growth Index Plate 3 [21]: ++
Growth Index Avg [22]: −
Growth Index Plate 1 [22]: −
Growth Index Plate 2 [22]: −
Growth Index Plate 3 [22]: −
Growth Index Avg [23]: ++
Growth Index Plate 1 [23]: +++
Growth Index Plate 2 [23]: ++
Growth Index Plate 3 [23]: ++
Growth Index Avg [24]: +++
Growth Index Plate 1 [24]: +++
Growth Index Plate 2 [24]: +++
Growth Index Plate 3 [24]: ++
Growth Index Avg [25]: +++
Growth Index Plate 1 [25]: +++
Growth Index Plate 2 [25]: +++
Growth Index Plate 3 [25]: +++
Growth Index Avg [26]: −
Growth Index Plate 1 [26]: −
Growth Index Plate 2 [26]: −
Growth Index Plate 3 [26]: −
Growth Index Avg [27]: +++
Growth Index Plate 1 [27]: +++
Growth Index Plate 2 [27]: ++
Growth Index Plate 3 [27]: +++
Growth Index Avg [28]: −
Growth Index Plate 1 [28]: −
Growth Index Plate 2 [28]: −
Growth Index Plate 3 [28]: −
Growth Index Avg [29]: ++
Growth Index Plate 1 [29]: ++
Growth Index Plate 2 [29]: ++
Growth Index Plate 3 [29]: ++
Growth Index Avg [30]: ++
Growth Index Plate 1 [30]: ++
Growth Index Plate 2 [30]: ++
Growth Index Plate 3 [30]: ++
growth of P. Acnes in combination with 15-HETrE, compared with 15-HETrE used alone (in combination with 15-HETrE): did not reduce the growth
growth of P. Acnes in combination with 15-OHEPA, compared with 15 OHEPA used alone (in combination with 15-OHEPA): did not reduce the growth
growth of P. Acnes in combination with DGLA, compared with DGLA used alone (in combination with DGLA): did not reduce the growth
